From ChEMBL document CHEMBL1201862, “PubChem BioAssay data set” (2004) come the findings set out here.

Some test systems named below: M14; HCC 2998; LXFL 529; U-251; EKVX; CAKI-1; COLO 205; KM-20L2; SF-539; NCI-H23; SNB-78; NCI-H226; UO-31; DMS-114; NCI/ADR-RES; BT-549; MDA-MB-231; MDA-MB-435; T47D; Hs-578T.
What all share (experiment): NCI tumour cell line growth inhibition, 48 h

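The compound was tested at five concentrations on cells cultured in 96-well plates, with a 48-hour exposure period. GI50 is the concentration that inhibits growth by half.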 Active and inactive are the calls of the source. No stated cut-off is given here; in the data, active = GI50 up to about 1.1 µM and inactive = higher. Where only a bound is given, the exact number is not on record here.

In the case of `COc1ccc(C(c2ccc(C(C)C)cc(=O)c2O)c2c(O)cc3oc(-c4ccccc4)cc(=O)c3c2O)cc1` (stereo not given), the GI50 with M14 was 7.26 µM (inactive); in the test with HCC 2998, 3.58 µM (inactive); in the test with LXFL 529, 14 µM (inactive); with U-251 it was 6.43 µM (inactive); in the test with EKVX, 12.6 µM (inactive); with CAKI-1, 9.04 µM (inactive). For the same compound, the GI50 in the test on COLO 205 was 9.79 µM (inactive); in the test on KM-20L2, 9.82 µM (inactive); in the test on SF-539 it was 3.05 µM (inactive); with NCI-H23 it was 4.79 µM (inactive); in the test on SNB-78, 20.8 µM (inactive).
On to `Cc1nc2ccc(C(F)(F)F)cc2nc1Nc1ccc(Cl)c(Cl)c1`, for which the GI50 was 3.72 µM (inactive) in the test with HCC 2998; 7.87 µM (inactive) in the test on LXFL 529; 6.46 µM (inactive) with U-251; 16.1 µM (inactive) with NCI-H226; > 10 µM (inactive) in the test on EKVX; 12.2 µM (inactive) in the test with UO-31. The GI50 was 3.94 µM (inactive) in the test on COLO 205; 4.11 µM (inactive) in the test on KM-20L2; 14.1 µM (inactive) in the test on SF-539; 12.6 µM (inactive) in the test with NCI-H23; 14.7 µM (inactive) with SNB-78.
In the case of `Cc1cc(N(CCC#N)CCC#N)ccc1/N=N/c1cc(Cl)ccc1Cl`, the GI50 in the test on M14 was 3.46 µM (inactive); in the test on HCC 2998, 16.6 µM (inactive); in the test with DMS-114, 6.59 µM (inactive); in the test on LXFL 529, 1.7 µM (inactive); with U-251, 18.3 µM (inactive); in the test with NCI-H226, 6.38 µM (inactive). The GI50 in the test with EKVX was 13.6 µM (inactive); in the test on UO-31, 16.7 µM (inactive); with CAKI-1, 3.5 µM (inactive); in the test with COLO 205, 2.04 µM (inactive); in the test on SF-539, 6.28 µM (inactive); in the test on NCI-H23, 13.4 µM (inactive). The GI50 in the test with SNB-78 was 6.22 µM (inactive).
As for `CC12CCC3C(CCC4=CC(O)CCC43C=O)C1(O)CCC2c1ccc(=O)oc1` (stereo not given), the GI50 in the test with HCC 2998 is 0.021 µM (active); in the test on DMS-114, 0.0014 µM (active); in the test on NCI/ADR-RES, 0.0253 µM (active); in the test with U-251, 0.00556 µM (active); with NCI-H226 it was 0.0303 µM (active); in the test with EKVX, 0.0124 µM (active). The GI50 in the test on UO-31 was 0.027 µM (active); with COLO 205, 0.0169 µM (active); with KM-20L2, 0.00832 µM (active); in the test on SF-539, 0.00385 µM (active); in the test with NCI-H23, 0.00226 µM (active); in the test with SNB-78, 0.0075 µM (active).
Turning to `CC1(C)N=C(N)N=C(N)N1c1ccc(CCCCc2ccc(S(=O)(=O)F)cc2Cl)c(Cl)c1`, the GI50 with M14 is 1.63 µM (inactive); with HCC 2998 it was 5.04 µM (inactive); in the test on DMS-114, 0.458 µM (active); in the test with NCI/ADR-RES it was 143 µM (inactive); with BT-549, 5.26 µM (inactive); with MDA-MB-231, 10.5 µM (inactive). Moreover, the GI50 in the test with MDA-MB-435 was 3.95 µM (inactive); with U-251 it was 1.02 µM (active); in the test with NCI-H226 it was 18.5 µM (inactive); with EKVX, 36.2 µM (inactive); with UO-31, 36.1 µM (inactive); with T47D, 10.5 µM (inactive). Also, the GI50 in the test on CAKI-1 was 9.55 µM (inactive); in the test with Hs-578T, 74 µM (inactive); with COLO 205 it was 5.85 µM (inactive); in the test with KM-20L2 it was 6.76 µM (inactive); in the test on SF-539, 1.67 µM (inactive); in the test on NCI-H23, 4.07 µM (inactive). In addition, the GI50 with SNB-78 is 11.6 µM (inactive).
`C#C[C@H](CCCC)OC(=O)N[C@H](C)c1ccccc1`: the GI50 in the test on M14 is 41.8 µM (inactive); with DMS-114, 28.2 µM (inactive); in the test with LXFL 529, 36.3 µM (inactive); in the test with U-251 it was 59.8 µM (inactive); with EKVX it was 50.6 µM (inactive); in the test with UO-31 it was 26.9 µM (inactive). In addition, the GI50 in the test with CAKI-1 was 52.6 µM (inactive); in the test with COLO 205, 21.7 µM (inactive); with KM-20L2, 66.5 µM (inactive); with SNB-78, 70 µM (inactive).
For the compound `CC(=O)C1CC(C)=CCC12C(=O)Nc1ccccc12` (stereo not given), the GI50 in the test with M14, with HCC 2998, in the test with DMS-114, with LXFL 529, in the test on U-251 and in the test on NCI-H226 was > 100 µM (inactive) each time. The GI50 in the test with EKVX, in the test with CAKI-1, in the test with COLO 205, in the test on KM-20L2, with SF-539 and in the test with NCI-H23 was > 100 µM (inactive) in each case.
As to `COc1ccc2oc(-c3cccnc3)cc(=O)c2c1`, the GI50 was > 100 µM (inactive) in the test with M14; > 100 µM (inactive) in the test with HCC 2998; 80.7 µM (inactive) in the test with DMS-114; 71.6 µM (inactive) in the test on LXFL 529; > 100 µM (inactive) in the test with U-251; > 100 µM (inactive) with NCI-H226. The GI50 in the test with UO-31 is 27.2 µM (inactive); in the test on CAKI-1, 42.7 µM (inactive); with COLO 205, > 100 µM (inactive); with NCI-H23, > 100 µM (inactive).
For the compound `NC(=O)c1ccccc1NC(=O)C(=O)Nc1n[nH]c(N)n1`, the GI50 in the test on M14, in the test on HCC 2998, in the test with LXFL 529, in the test on U-251, with NCI-H226 and in the test on EKVX was > 100 µM (inactive) throughout. Besides, the GI50 in the test with UO-31, with CAKI-1, with COLO 205, in the test with KM-20L2, in the test with SF-539 and with NCI-H23 was > 100 µM (inactive) throughout. For the same compound, the GI50 with SNB-78 was > 100 µM (inactive).
In the case of `CC1OC(n2cc(F)c(=O)[nH]c2=O)CCC1O` (stereo not given), the GI50 with M14 is > 91.4 µM (inactive); with HCC 2998, 30.1 µM (inactive); in the test on NCI/ADR-RES, > 100 µM (inactive); in the test on BT-549, > 100 µM (inactive); with MDA-MB-231 it was > 100 µM (inactive); in the test with MDA-MB-435 it was > 100 µM (inactive). In addition, the GI50 in the test with LXFL 529 is > 100 µM (inactive); in the test on U-251, > 100 µM (inactive); in the test on NCI-H226, > 100 µM (inactive); in the test with EKVX, > 100 µM (inactive); with UO-31 it was 85.3 µM (inactive); with T47D, > 100 µM (inactive). The GI50 in the test on CAKI-1 was > 91.6 µM (inactive); in the test with Hs-578T, 99.1 µM (inactive); in the test with COLO 205, > 87.1 µM (inactive); with KM-20L2 it was 95.1 µM (inactive); with SF-539 it was 29.2 µM (inactive); with NCI-H23, > 100 µM (inactive). Also, the GI50 in the test with SNB-78 is > 100 µM (inactive).
Consider `COc1ccc2nc3c(C(=O)NCCN(C)C)cccc3cc2c1`, for which the GI50 is 3.79 µM (inactive) in the test on HCC 2998; 1.91 µM (inactive) in the test with DMS-114; 1.41 µM (inactive) in the test on NCI/ADR-RES; 3.48 µM (inactive) in the test on U-251; 1.44 µM (inactive) in the test on NCI-H226; 2.34 µM (inactive) in the test with EKVX. In addition, the GI50 is 1.44 µM (inactive) with UO-31; 0.103 µM (active) with CAKI-1; 0.893 µM (active) with COLO 205; 0.562 µM (active) in the test with KM-20L2; 3.15 µM (inactive) in the test with SF-539; 2.09 µM (inactive) in the test with NCI-H23. The GI50 with SNB-78 was 3.76 µM (inactive).
In the case of `NC(Cc1cc(I)c(O)c(I)c1)C(=O)O` (stereo not given), the GI50 in the test with HCC 2998 is > 500 µM (inactive); with DMS-114, 185 µM (inactive); in the test on NCI/ADR-RES it was > 316 µM (inactive); in the test with U-251 it was > 500 µM (inactive); in the test on NCI-H226, > 500 µM (inactive); in the test on EKVX it was > 316 µM (inactive). In addition, the GI50 in the test on UO-31 was > 500 µM (inactive); with CAKI-1, 45.4 µM (inactive); in the test on COLO 205, 263 µM (inactive); in the test on KM-20L2, > 500 µM (inactive); in the test on SF-539 it was > 392 µM (inactive); in the test on NCI-H23 it was > 287 µM (inactive). Further, the GI50 with SNB-78 was > 500 µM (inactive).
For `CN[C@@H](C)[C@@H](NC)c1ccccc1`, the GI50 is > 100 µM (inactive) in the test on M14; > 100 µM (inactive) in the test on HCC 2998; > 100 µM (inactive) with DMS-114; > 100 µM (inactive) in the test with LXFL 529; 1.52 µM (inactive) with U-251; > 100 µM (inactive) with NCI-H226. Besides, the GI50 in the test on EKVX, with UO-31, in the test on CAKI-1, in the test with COLO 205, with SF-539 and in the test on NCI-H23 was > 100 µM (inactive) each time. For the same compound, the GI50 with SNB-78 is > 100 µM (inactive).
Take `O=C(CC/C(C/C(=N/O)c1ccc(F)cc1)=N/O)N(Cc1ccccc1)Cc1ccccc1`: the GI50 in the test with M14, in the test with HCC 2998, with DMS-114, in the test on LXFL 529, in the test on U-251 and with NCI-H226 was > 100 µM (inactive) throughout. The GI50 is 58.6 µM (inactive) in the test on EKVX; > 100 µM (inactive) with UO-31; > 100 µM (inactive) in the test with CAKI-1; 73.8 µM (inactive) in the test with COLO 205; > 100 µM (inactive) with KM-20L2; > 100 µM (inactive) in the test on SF-539. Moreover, the GI50 with NCI-H23 was > 100 µM (inactive).
With `[N-]=[N+]=CC(=O)CCC(NC(=O)C(CCC(=O)C=[N+]=[N-])NC(=O)CCC(N)C(=O)O)C(=O)O` (stereo not given), the GI50 in the test on HCC 2998, in the test with DMS-114, in the test with NCI/ADR-RES, with U-251, with NCI-H226 and with EKVX was > 100 µM (inactive) each time. Further, the GI50 in the test with UO-31, in the test with CAKI-1, in the test with COLO 205, in the test with KM-20L2, with SF-539 and with NCI-H23 was > 100 µM (inactive) in each case. The GI50 in the test with SNB-78 was > 100 µM (inactive).
